Test results from ChEMBL document CHEMBL6127018, “Molecular design and evaluation of aza-polycyclic carbamoyl pyridones as HIV-1 integrase strand transfer inhibitors” (Bioorg Med Chem Lett, 2024).
pEC50, pIC50: −log10 of the molar value.

Key:
[1] = target: Human immunodeficiency virus type 1 integrase (Human immunodeficiency virus 1, UniProt Q7ZJM1); test: Inhibition of recombinant HIV-1 integrase by microtiter plate integration assay
[2] = test system: Human immunodeficiency virus 1; test: Antiviral activity against HIV-1 infected in human MT4 cells; format: functional, organism-based; settings: Human immunodeficiency virus 1, MT4
[3] = Cytotoxicity against human MT4 cells; format: toxicity, cell-based
[4] = Selectivity ratio of PAEC50 for antiviral activity against HIV-1 infected in human MT4 cells in presence of human serum albumin to EC50 for antiviral activity against HIV-1 infected in human MT4 cells; format: functional, Human immunodeficiency virus 1
[5] = test system: Human immunodeficiency virus 1; test: Antiviral activity against HIV-1 harboring raltegravir resistant Q148H mutant infected in human HeLa-CD4 cells assessed as fold change; format: functional

Human immunodeficiency virus type 1 integrase, sequence (Q7ZJM1 whole entry): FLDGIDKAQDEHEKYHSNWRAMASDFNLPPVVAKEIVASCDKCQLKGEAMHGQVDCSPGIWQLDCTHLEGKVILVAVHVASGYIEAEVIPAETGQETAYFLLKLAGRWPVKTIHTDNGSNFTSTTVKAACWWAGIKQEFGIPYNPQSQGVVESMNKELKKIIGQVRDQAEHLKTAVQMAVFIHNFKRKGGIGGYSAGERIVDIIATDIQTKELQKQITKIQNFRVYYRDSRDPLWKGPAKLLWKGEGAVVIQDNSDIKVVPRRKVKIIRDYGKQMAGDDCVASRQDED

SMILES: CN1Cn2cc(C(=O)NCc3ccc(F)cc3F)c(=O)c(O)c2C(=O)N1CCO
- pIC50 [1]: 8.31
- pEC50 [2]: 7.82
- CC50 [3]: > 50000 nM
- Selectivity ratio [4]: 18

SMILES: CN1CN(Cc2ccc(F)cc2)C(=O)c2c(O)c(=O)c(C(=O)NCc3ccc(F)cc3F)cn21
- pIC50 [1]: 8.35
- pEC50 [2]: 8.77
- CC50 [3]: > 50000 nM
- Selectivity ratio [4]: 25
- fold change (FC) [5]: 0.51

SMILES: COCCN1CN(Cc2ccccc2)n2cc(C(=O)NCc3ccc(F)cc3F)c(=O)c(O)c2C1=O
- pIC50 [1]: 8.46
- pEC50 [2]: 8.72
- CC50 [3]: 5000 nM
- Selectivity ratio [4]: 17
- fold change (FC) [5]: 1.1

SMILES: CN1NCn2cc(C(=O)NCc3ccc(F)cc3F)c(=O)c(O)c2C1=O
- pIC50 [1]: 8.32
- pEC50 [2]: 8.41
- CC50 [3]: 34000 nM
- Selectivity ratio [4]: 12

SMILES: CN1CN(CC2CC2)C(=O)c2c(O)c(=O)c(C(=O)NCc3ccc(F)cc3F)cn21
- pIC50 [1]: 8.40
- pEC50 [2]: 8.89
- CC50 [3]: 13000 nM
- Selectivity ratio [4]: 360
- fold change (FC) [5]: 0.85

SMILES: COCCN1CN(CC(=O)N(C)C)n2cc(C(=O)NCc3ccc(F)cc3F)c(=O)c(O)c2C1=O
- pIC50 [1]: 8.29
- pEC50 [2]: 7.82
- CC50 [3]: 38000 nM
- Selectivity ratio [4]: 5
- fold change (FC) [5]: 0.9

SMILES: COCCN1CN(CC(C)C)n2cc(C(=O)NCc3ccc(F)cc3F)c(=O)c(O)c2C1=O
- pIC50 [1]: 8.21
- pEC50 [2]: 8.46
- CC50 [3]: 13000 nM
- Selectivity ratio [4]: 620
- fold change (FC) [5]: 0.6

SMILES: O=C(NCc1ccc(F)cc1F)c1cn2c(c(O)c1=O)C(=O)N1CCCCCN1C2
- pIC50 [1]: 8.21
- pEC50 [2]: 8.46
- CC50 [3]: 17000 nM
- Selectivity ratio [4]: 400

SMILES: CC(C)N1NCn2cc(C(=O)NCc3ccc(F)cc3F)c(=O)c(O)c2C1=O
- pIC50 [1]: 8.37
- pEC50 [2]: 8.77
- CC50 [3]: 15000 nM
- Selectivity ratio [4]: 34

SMILES: CN1CN(Cc2ccco2)C(=O)c2c(O)c(=O)c(C(=O)NCc3ccc(F)cc3F)cn21
- pIC50 [1]: 8.24
- pEC50 [2]: 8.82
- CC50 [3]: > 50000 nM
- Selectivity ratio [4]: 89
- fold change (FC) [5]: 0.77

SMILES: CN1Cn2cc(C(=O)NCc3ccc(F)cc3F)c(=O)c([O-])c2C(=O)N1C.[Na+]
- pIC50 [1]: 8.43
- pEC50 [2]: 8.62
- CC50 [3]: > 50000 nM
- Selectivity ratio [4]: 52

SMILES: CN1CN(C[C@@H]2CCCO2)C(=O)c2c(O)c(=O)c(C(=O)NCc3ccc(F)cc3F)cn21
- pIC50 [1]: 8.33
- pEC50 [2]: 8.89
- CC50 [3]: 14000 nM
- Selectivity ratio [4]: 13
- fold change (FC) [5]: 1

SMILES: CN1CN(C2CC2)C(=O)c2c(O)c(=O)c(C(=O)NCc3ccc(F)cc3F)cn21
- pIC50 [1]: 8.33
- pEC50 [2]: 8.70
- CC50 [3]: 12000 nM
- Selectivity ratio [4]: 1000
- fold change (FC) [5]: 1.5

SMILES: COCCN1CN(C(c2ccccc2)c2ccccc2)n2cc(C(=O)NCc3ccc(F)cc3F)c(=O)c(O)c2C1=O
- pEC50 [2]: 4.24

SMILES: O=C(NCc1ccc(F)cc1F)c1cn2c(c(O)c1=O)C(=O)N1CCCN1C2
- pIC50 [1]: 8.47
- pEC50 [2]: 8.66
- CC50 [3]: > 50000 nM
- Selectivity ratio [4]: 12

SMILES: CN1C(=O)c2c(O)c(=O)c(C(=O)NCc3ccc(F)cc3F)cn2CN1CCO
- pIC50 [1]: 8.33
- pEC50 [2]: 7.70
- CC50 [3]: > 50000 nM
- Selectivity ratio [4]: 3.1

SMILES: COCCN1CN(CCO)n2cc(C(=O)NCc3ccc(F)cc3F)c(=O)c(O)c2C1=O
- pIC50 [1]: 8.27
- pEC50 [2]: 8.03
- CC50 [3]: 28000 nM
- Selectivity ratio [4]: 13
- fold change (FC) [5]: 0.7

SMILES: CN1Cn2cc(C(=O)NCc3ccc(F)cc3F)c(=O)c(O)c2C(=O)N1
- pIC50 [1]: 8.35
- pEC50 [2]: 7.54
- CC50 [3]: > 50000 nM
- Selectivity ratio [4]: 8.4

SMILES: CN(C)CCN1CN(C)n2cc(C(=O)NCc3ccc(F)cc3F)c(=O)c(O)c2C1=O
- pIC50 [1]: 7.96
- pEC50 [2]: 8.32
- CC50 [3]: 12000 nM
- Selectivity ratio [4]: 2.2
- fold change (FC) [5]: 5

SMILES: COCCN1CN(Cc2cccnc2)n2cc(C(=O)NCc3ccc(F)cc3F)c(=O)c(O)c2C1=O
- pIC50 [1]: 8.16
- pEC50 [2]: 8.49
- CC50 [3]: 8100 nM
- Selectivity ratio [4]: 3.3
- fold change (FC) [5]: 1.4

SMILES: CC(C)N1CN(C)n2cc(C(=O)NCc3ccc(F)cc3F)c(=O)c(O)c2C1=O
- pIC50 [1]: 8.28
- pEC50 [2]: 8.89
- CC50 [3]: 3900 nM
- Selectivity ratio [4]: 230
- fold change (FC) [5]: 0.64

SMILES: COCCN1C(=O)c2c(O)c(=O)c(C(=O)NCc3ccc(F)cc3F)cn2CN1C
- pIC50 [1]: 8.35
- pEC50 [2]: 8.85
- CC50 [3]: 18000 nM
- Selectivity ratio [4]: 24
- fold change (FC) [5]: 1.7

SMILES: O=C(NCc1ccc(F)cc1F)c1cn2c(c(O)c1=O)C(=O)N1CCOCCN1C2
- pIC50 [1]: 8.06
- pEC50 [2]: 8.34
- CC50 [3]: 32000 nM
- Selectivity ratio [4]: 20

SMILES: CCN(CC)CCN1CN(CCOC)C(=O)c2c(O)c(=O)c(C(=O)NCc3ccc(F)cc3F)cn21
- pIC50 [1]: 7.66
- pEC50 [2]: 7.89
- CC50 [3]: 11000 nM
- Selectivity ratio [4]: 1.4
- fold change (FC) [5]: 2.3

SMILES: CCN1Cn2cc(C(=O)NCc3ccc(F)cc3F)c(=O)c(O)c2C(=O)N1
- pIC50 [1]: 8.35
- pEC50 [2]: 7.96
- CC50 [3]: > 50000 nM
- Selectivity ratio [4]: 44

SMILES: CC(=O)NCCN1Cn2cc(C(=O)NCc3ccc(F)cc3F)c(=O)c(O)c2C(=O)N1C
- pIC50 [1]: 8.05
- pEC50 [2]: 6.92
- CC50 [3]: > 50000 nM
- Selectivity ratio [4]: 2.8

SMILES: COCCN1CN(C)n2cc(C(=O)NCc3ccc(F)cc3F)c(=O)c(O)c2C1=O
- pIC50 [1]: 8.32
- pEC50 [2]: 9.08
- CC50 [3]: 13000 nM
- Selectivity ratio [4]: 18
- fold change (FC) [5]: 0.81

SMILES: COCCN1CN(Cc2ccccn2)n2cc(C(=O)NCc3ccc(F)cc3F)c(=O)c(O)c2C1=O
- pIC50 [1]: 8.04
- pEC50 [2]: 8.62
- CC50 [3]: 7000 nM
- Selectivity ratio [4]: 4.7
- fold change (FC) [5]: 1.2

SMILES: COCCCN1CN(C)n2cc(C(=O)NCc3ccc(F)cc3F)c(=O)c(O)c2C1=O
- pIC50 [1]: 8.25
- pEC50 [2]: 8.89
- CC50 [3]: 18000 nM
- Selectivity ratio [4]: 11
- fold change (FC) [5]: 0.93

SMILES: CN1CN(Cc2cccs2)C(=O)c2c(O)c(=O)c(C(=O)NCc3ccc(F)cc3F)cn21
- pIC50 [1]: 8.35
- pEC50 [2]: 8.77
- CC50 [3]: > 50000 nM
- Selectivity ratio [4]: 96
- fold change (FC) [5]: 0.72

SMILES: O=C(NCc1ccc(F)cc1)c1cn2c(c(O)c1=O)C(=O)N1CCCN1C2
- pIC50 [1]: 8.28
- pEC50 [2]: 8.44
- CC50 [3]: 41000 nM
- Selectivity ratio [4]: 9.1

SMILES: C[C@@H]1CCO[C@H]2Cn3cc(C(=O)NCc4ccc(F)cc4F)c(=O)c(O)c3C(=O)N12 [DOLUTEGRAVIR]
- pEC50 [2]: 8.68
- CC50 [3]: 15000 nM
- fold change (FC) [5]: 0.74

SMILES: O=C(NCc1ccc(F)cc1)c1cn2c(c(O)c1=O)C(=O)N1CCCCN1C2
- pIC50 [1]: 8.35
- pEC50 [2]: 8.74
- CC50 [3]: 23000 nM
- Selectivity ratio [4]: 215

SMILES: CCN1CN(CCOC)C(=O)c2c(O)c(=O)c(C(=O)NCc3ccc(F)cc3F)cn21
- pIC50 [1]: 8.31
- pEC50 [2]: 8.89
- CC50 [3]: 8500 nM
- Selectivity ratio [4]: 110
- fold change (FC) [5]: 0.73

SMILES: COCCN1Cn2cc(C(=O)NCc3ccc(F)cc3F)c(=O)c(O)c2C(=O)N1C
- pIC50 [1]: 8.36
- pEC50 [2]: 8.80
- CC50 [3]: 15000 nM
- Selectivity ratio [4]: 14
- fold change (FC) [5]: 2.3

SMILES: CN1CN(C[C@H]2CCCO2)C(=O)c2c(O)c(=O)c(C(=O)NCc3ccc(F)cc3F)cn21
- pIC50 [1]: 8.38
- pEC50 [2]: 8.85
- CC50 [3]: 9800 nM
- Selectivity ratio [4]: 23
- fold change (FC) [5]: 1.5
